In a compilation of properties of binary mixtures (doi:10.1039/c6ra15476j):

Experiment: xn = mol fraction of the nth substance listed
Details: 100 kPa

CCOS(=O)(=O)[O-].CC[n+]1ccn(C)c1 + CC(=O)c1ccccc1
x2 = 0
Details | speed of sound [m/s] | viscosity [mPa·s]
293.15 K | 1695 | 98
303.15 K | 1670 | 60
323.15 K | 1623 | 27.9

CC(=O)c1ccccc1 + CCCC[n+]1ccn(C)c1.F[P-](F)(F)(F)(F)F
viscosity [mPa·s]
Details | 293.15 K | 303.15 K | 313.15 K | 323.15 K | 333.15 K
x1 = 0.0504 | 176 | 89 | 62 | 41 | 27.6
x1 = 0.0913 | 129 | 68 | 45.8 | – | –
x1 = 0.1983 | 88 | 48.5 | 35 | 26.5 | 18.6
x1 = 0.2999 | 81 | – | 32.3 | 23.2 | –
x1 = 0.3908 | 73 | 40.9 | 28.3 | – | 14.2
x1 = 0.4973 | 60 | 32.4 | – | 15.2 | 10.2
x1 = 0.5999 | – | 22.9 | – | 11.6 | 9.3
x1 = 0.697 | 35.6 | 18.5 | 12.3 | – | 8.3
x1 = 0.7999 | 28.2 | 14.3 | 8 | – | 4.67
x1 = 0.9002 | 16.2 | 7.7 | 5.6 | 4.34 | –
x1 = 0.95 | 8.4 | 4.64 | 3.57 | – | 1.62
x1 = 1 | 1.91 | 1.65 | 1.37 | 1.17 | –

CCCC[n+]1ccn(C)c1.F[P-](F)(F)(F)(F)F + CC(=O)c1ccccc1
x2 = 0
Details | viscosity [mPa·s]
293.15 K | 293
303.15 K | 162
323.15 K | 62
333.15 K | 42.3

CC(=O)c1ccccc1 + CC[n+]1ccn(C)c1.F[B-](F)(F)F
Details | speed of sound, 293.15 K [m/s] | speed of sound, 303.15 K [m/s] | speed of sound, 313.15 K [m/s] | speed of sound, 323.15 K [m/s] | speed of sound, 333.15 K [m/s] | viscosity, 293.15 K [mPa·s] | viscosity, 303.15 K [mPa·s] | viscosity, 313.15 K [mPa·s] | viscosity, 323.15 K [mPa·s] | viscosity, 333.15 K [mPa·s]
x1 = 0.0416 | 1640 | 1608 | 1581 | 1555 | – | 32.1 | 21.2 | 15.4 | 11.6 | –
x1 = 0.094 | 1638 | – | 1572 | – | – | 25.5 | – | 12.3 | – | –
x1 = 0.195 | 1628 | 1591 | 1560 | 1530 | 1502 | 21.7 | 14.3 | 10.9 | 8.1 | 7.2
x1 = 0.2999 | – | 1581 | 1550 | 1519 | 1490 | – | 12.9 | 9.5 | 7.3 | 5.8
x1 = 0.4003 | – | 1571 | 1538 | – | – | – | 11 | 8.1 | – | –
x1 = 0.4989 | 1598 | – | 1527 | – | 1462 | 12.3 | – | 6 | – | 3.49
x1 = 0.5979 | 1583 | 1546 | 1511 | 1477 | 1442 | 8.7 | 6.5 | 5.2 | 4.14 | 3.39
x1 = 0.7005 | 1564 | 1528 | 1491 | 1457 | 1422 | 6.8 | 4.97 | 3.84 | 3.1 | 2.58
x1 = 0.8007 | 1543 | 1507 | 1472 | 1437 | 1400 | 4.74 | 3.61 | 3.09 | 2.36 | 2
x1 = 0.8918 | 1522 | 1485 | – | 1413 | – | 3.2 | 2.56 | – | 1.76 | –
x1 = 0.9498 | 1509 | 1471 | – | 1398 | – | 2.45 | 2.03 | – | 1.42 | –
x1 = 1 | 1497 | 1460 | 1423 | 1387 | – | 1.91 | 1.65 | 1.37 | 1.17 | –
